# Experiments:
# Caco-2 [1] = assay: cell viability relative to DMSO; higher = less toxic; conditions: 72 h
# Calu-3 [2] = assay: as above; conditions: 72 h
# HepG2 [3] = assay: as above; conditions: 72 h
# U2OS [4] = assay: as above; conditions: 72 h
# Vero E6 [5] = assay: as above; conditions: 72 h
# Caco-2 [6] = assay: relative viability EC50 (midpoint between 100% and the lowest measured viability); higher = less toxic; conditions: 72 h
# Calu-3 [7] = assay: as above; conditions: 72 h
# HepG2 [8] = assay: as above; conditions: 72 h
# U2OS [9] = assay: as above; conditions: 72 h
# Vero E6 [10] = assay: as above; conditions: 72 h
# Caco-2 [11] = assay: drug sensitivity score (DSS) for viability; higher = more toxic; extreme values may be limits of the assay; conditions: 72 h
# Calu-3 [12] = assay: as above; conditions: 72 h
# HepG2 [13] = assay: as above; conditions: 72 h
# U2OS [14] = assay: as above; conditions: 72 h
# Vero E6 [15] = assay: as above; conditions: 72 h
# [16] = tested on: A549-ACE2 infected with SARS-CoV-2; assay: morphology score (similarity to uninfected cells); higher = more like uninfected cells; conditions: 24 h
Compound,cell viability (Caco-2 [1]; 1 nM) [%],cell viability (Caco-2 [1]; 10 nM) [%],cell viability (Caco-2 [1]; 100 nM) [%],cell viability (Caco-2 [1]; 1000 nM) [%],cell viability (Caco-2 [1]; 10000 nM) [%],cell viability (Calu-3 [2]; 1 nM) [%],cell viability (Calu-3 [2]; 10 nM) [%],cell viability (Calu-3 [2]; 100 nM) [%],cell viability (Calu-3 [2]; 1000 nM) [%],cell viability (Calu-3 [2]; 10000 nM) [%],cell viability (HepG2 [3]; 1 nM) [%],cell viability (HepG2 [3]; 10 nM) [%],cell viability (HepG2 [3]; 100 nM) [%],cell viability (HepG2 [3]; 1000 nM) [%],cell viability (HepG2 [3]; 10000 nM) [%],cell viability (U2OS [4]; 1 nM) [%],cell viability (U2OS [4]; 10 nM) [%],cell viability (U2OS [4]; 100 nM) [%],cell viability (U2OS [4]; 1000 nM) [%],cell viability (U2OS [4]; 10000 nM) [%],cell viability (Vero E6 [5]; 1 nM) [%],cell viability (Vero E6 [5]; 10 nM) [%],cell viability (Vero E6 [5]; 100 nM) [%],cell viability (Vero E6 [5]; 1000 nM) [%],cell viability (Vero E6 [5]; 10000 nM) [%],relative viability EC50 (Caco-2 [6]) [µM],relative viability EC50 (Calu-3 [7]) [µM],relative viability EC50 (HepG2 [8]) [µM],relative viability EC50 (U2OS [9]) [µM],relative viability EC50 (Vero E6 [10]) [µM],drug sensitivity score (Caco-2 [11]),drug sensitivity score (Calu-3 [12]),drug sensitivity score (HepG2 [13]),drug sensitivity score (U2OS [14]),drug sensitivity score (Vero E6 [15]),morphology score ([16]; 0.1 µM),morphology score ([16]; 0.3 µM),morphology score ([16]; 1 µM),morphology score ([16]; 3 µM)
O=C1CCC2CCC(=O)N12 [rolziracetam],79.1,112,82.8,98.6,89.1,91,87,99.1,103,96.3,114,104,96.1,108,116,98,100,101,96.7,102,94.9,105,97.8,102,97.5,> 10,> 10,> 10,> 10,> 10,0,0,0,0,0,–,–,–,–
CCC(C)(C)C(=O)O[C@H]1C[C@@H](C)C=C2C=C[C@H](C)[C@H](CC[C@@H]3C[C@@H](O)CC(=O)O3)[C@H]21 [simvastatin],–,–,–,–,–,–,–,–,–,–,–,–,–,–,–,–,–,–,–,–,–,–,–,–,–,–,–,–,–,–,–,–,–,–,–,0.01,0.17,0.04,-0.23
C1CCN2C[C@@H]3C[C@@H](CN4CCCC[C@@H]34)[C@H]2C1 [sparteine-sulfate],84.7,87.4,81.4,78.5,105,114,104,108,116,86.7,94.9,101,102,89,102,105,99.7,104,97.6,100,97.4,98.7,82.1,93.6,105,> 10,> 10,> 10,> 10,> 10,2.6,0,0,0,0,–,–,–,–
O=C(CCBr)N1CC[N+]2(CC1)CC[N+]1(CCN(C(=O)CCBr)CC1)CC2 [spirobromin],103,87,94.2,109,108,110,100,94.7,110,100,91.7,91.5,96.6,106,96.4,96.4,95.2,97.3,99.4,97.7,91.2,101,96.4,91.5,106,> 10,> 10,> 10,> 10,> 10,0,0,0,0,0,–,–,–,–
Cc1cn([C@H]2C=C[C@@H](CO)O2)c(=O)[nH]c1=O [stavudine],92.7,92.4,82.9,113,88.6,94.1,102,92.9,101,108,88.4,91.5,93.8,98.4,95,102,99.7,103,96.7,106,92.7,94.5,95.9,104,105,> 10,> 10,> 10,> 10,> 10,0,0,0,0,0,–,–,–,–
O=C(O)CCC(=O)O [succinic-acid],92.2,89.7,86,94.8,93.5,97.2,105,98.5,101,97.5,110,100,110,101,99.8,95.5,102,97.7,102,101,104,96.6,95.5,98.4,104,> 10,> 10,> 10,> 10,> 10,0,0,0,0,0,–,–,–,–
CN[C@H](C(=O)N[C@H](C(=O)N(C)[C@H](/C=C(\C)C(=O)O)C(C)C)C(C)(C)C)C(C)(C)c1ccccc1 [taltobulin],68.3,45.6,34.3,35,35.9,82.8,58.4,46.7,39.6,38.8,73.5,28.9,28.6,34.8,33.1,73.8,31.8,17.3,18.5,17.7,88.5,39.6,25.2,17.9,18.1,0.0011,0.0037,0.0012,0.0021,0.0044,29.8,24.3,35,36.3,33.4,–,–,–,–
N=C1CCCN1Cc1[nH]c(=O)[nH]c(=O)c1Cl [tipiracil],96.7,93.4,93.2,98.1,98.6,94.2,102,89.4,97.4,101,100,89.6,96.5,101,98.7,97.4,99,93.8,97.5,100,97.6,95.9,94.9,92.6,104,> 10,> 10,> 10,> 10,> 10,0,0,0,0,0,–,–,–,–
CCC[C@@]1(CCc2ccccc2)CC(O)=C([C@H](CC)c2cccc(NS(=O)(=O)c3ccc(C(F)(F)F)cn3)c2)C(=O)O1 [tipranavir],98.5,97.1,93.6,103,93.1,107,98.1,102,109,118,94.8,103,93.6,103,93.9,100,99.4,100,104,101,104,102,100,102,105,> 10,> 10,> 10,> 10,> 10,0,0,0,0,0,–,–,–,–
c1ccc(CC2=NCCN2)cc1 [tolazoline],103,93.1,97.5,95,98,103,103,87.3,98.4,114,97.3,102,101,108,99.9,99.9,97.9,102,101,101,108,111,104,106,98.6,> 10,> 10,> 10,> 10,> 10,0,0,0,0,0,–,–,–,–
Cc1cccc(N(C)C(=S)Oc2ccc3ccccc3c2)c1 [tolnaftate],93.3,99.7,94,94.8,96.8,98,90,94,94.6,101,100,100,91.6,97.9,93.8,99.1,99.2,94.9,100,93.3,101,102,98.5,91.8,88.6,> 10,> 10,> 10,> 10,> 10,0,0,0,0,0.1,–,–,–,–
Cc1ccc(C(=O)C(C)CN2CCCCC2)cc1 (centres undefined) [tolperisone],92.4,98.5,94.9,94.4,94.6,107,93.2,110,100,99.4,94.2,95,96.3,102,86.5,102,100,97.2,98.4,98.1,97.6,99.4,104,100,99.4,> 10,> 10,> 10,> 10,> 10,0,0,0.1,0,0,–,–,–,–
CC(=O)Oc1cc(C(F)(F)F)ccc1C(=O)O [triflusal],96,106,90,98.4,103,98.6,97.9,93.5,92.2,103,90.6,90.5,92.1,101,111,96.2,102,99.5,97.9,101,99.4,96.9,97.7,100,94.5,> 10,> 10,> 10,> 10,> 10,0,0,0,0,0,–,–,–,–
CCOC(=O)N[C@@H]1CC[C@@H]2[C@@H](C1)C[C@H]1C(=O)O[C@H](C)[C@H]1[C@H]2/C=C/c1ccc(-c2cccc(F)c2)cn1 [vorapaxar],90,93.2,103,105,83,98,95,102,94.3,99.9,105,112,100,99.9,94.3,102,98.7,102,102,89.1,92.5,103,99.8,92.7,105,> 10,> 10,> 10,> 10,> 10,0.2,0,0,0,0,–,–,–,–

# — the supplement of paper PMC13380429
